Reference: US20040048237A1 (priority 2002, published 2004)
Peptide text beside a SMILES is read from it. * marks the point of attachment. Cbz = O=C(OCc1ccccc1)*

What was measured:
[1] = test system: N2A cells
[2] = test system: WtPN2A cells
[3] = test system: proteasome; assay type: cell-based

Molecule: CC(C)C[C@@H](C=O)NC(=O)[C@H](CC(C)C)NC(=O)[C@H](CC(C)C)NC(=O)OCc1ccccc1 [MG132] (Cbz-Leu-Leu-Leu-aldehyde)
- cells died [1]: More than 50%
- cell death during proteasome inhibition relative to N2A cells [2]: died much more rapidly
- proteasome activity after MG132 treatment [3]: undetectable
- proteasome activity restored after removal of MG132 [3]: > 70 % of control levels
- relative proteasome inhibiting activity [3]: stronger proteasome inhibiting activity than 10 μM Lactacystin

Molecule: epoxomicin
- rate of N2A cell death [1]: died at the same rates
